From publication PMC7037732, “Synthesis of Combretastatin A-4 and 3′-Aminocombretastatin A-4 derivatives with Aminoacid Containing Pendants and Study of their Interaction with Tubulin and as Downregulators of the VEGF, hTERT and c-Myc Gene Expression” (Molecules, 2020) come the findings set out here.

Assay [1] deals with HEK-293 (human embryonic kidney cells). Nature of the assay: Inhibition of cell proliferation (MTT), nontumor HEK-293. The class given is cell-based. The settings on record: Homo sapiens, HEK293, 48 h, 48 h of treatment (footnote), average ±SD of three experiments.
Another assay deals with VEGF gene. Nature of the assay: VEGF gene expression by RT-qPCR in HT-29 cells. It is filed as cell-based, human. The settings on record: Homo sapiens, HT-29, 48 h, control 100; for mrna remaining at 0.007 µM: 7 nM. The procedure, abridged:
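HT-29 cells seeded at 1.5 × 10^5 per well, after 24 h exposed to compounds for 48 h at fixed single concentrations (15 μM for CA-4, otherwise nM to μM per derivative). Total RNA reverse-transcribed with oligo(dT)15; genes quantified by TaqMan RT-qPCR, β-actin as reference.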
In general terms: In qPCR the cycle at which signal appears reflects the starting amount.

In assay [2] the test system is HT-29 (human colon adenocarcinoma). Nature of the assay: Inhibition of cell proliferation (MTT), HT-29. The class given is cell-based. To be noted: Homo sapiens, HT-29, 48 h, 48 h of treatment (footnote), average ±SD of three experiments.
The next assay relates to A-549 cells. Nature of the assay: Cell cycle distribution by flow cytometry. It is filed as cell-based, human. To be noted: A-549, 24 h; for Effect on the cell cycle: concentration per compound as in Tables 6 and 7. Summed up: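 A-549 cells were harvested, fixed in cold 70% ethanol (30 min, −20 °C), then stained with 50 µg/mL propidium iodide plus 100 µg/mL RNase A in PBS for 20 min at room temperature in the dark. Flow cytometry used 488 nm excitation and 620 nm emission, giving the percentage of cells in G2/M.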

In a further assay the test system is purified tubulin. Briefly: Critical concentration (CrC) for the assembly of purified tubulin in GAB. To be noted: compound 27.5 μM, tubulin 25 μM, glycerol (GAB) and GTP assembly buffer; control 7.9 ± 1.2. It is filed as biochemical. How it is done:
The effect on the self-assembly of tubulin was determined by measuring the critical concentration (CrC).

As usually defined, the IC50 is the concentration at which inhibition is half-maximal. For `COc1ccc(/C=C\c2cc(OC)c(OC)c(OC)c2)cc1NC(=O)CNC(=O)OCC1c2ccccc2-c2ccccc21` [Compound 7.1], the IC50 in assay [1] (Table 2) was 3.5 ± 1.9 nM. In addition, the mrna remaining at 0.007 µM with VEGF gene was 69%. For the same compound, inhibition in assay [2] (Table 2) was half-maximal at 7 ± 4 nM (IC50). In the assay with A-549 cells (0.5 µM), this compound came in with a G0/G1 of 28 ± 1%, a G2/M of 54 ± 1% and an S of 18 ± 2%. Moreover, the “CrC (critical concentration)” value in the assay on purified tubulin was determined as 11 ± 4 µM.

Compound `COc1ccc(/C=C\c2cc(OC)c(OC)c(OC)c2)cc1OCC(=O)NCC(=O)O` [Compound 4.1] came in with an IC50 in assay [1] (Table 1) of 5000 ± 1000 nM. This compound also returned a mrna remaining at 5 µM in the assay with VEGF gene (5 μM) of 45%. Further, in assay [2] (Table 1), the 50% inhibitory concentration (IC50) came to 5000 ± 1000 nM. In the assay on A-549 cells (75 μM), this compound returned a G0/G1 of 68%, a G2/M of 20% and an S of 12%. Further, in the assay on A-549 cells, the “Effect on the cell cycle” value was “do not exert any significant effect on the cells”. Moreover, the “CrC (critical concentration)” value in the assay on purified tubulin is 9.3 ± 0.4 µM.

Compound `COc1ccc(/C=C\c2cc(OC)c(OC)c(OC)c2)cc1NC(=O)CN` [Compound 8.1] gave an IC50 in assay [1] (Table 2) of 10 ± 2 nM. In addition, the mrna remaining at 0.007 µM in the assay with VEGF gene is 24%. The same compound gave an IC50 in assay [2] (Table 2) of 10 ± 2 nM. Besides, in the assay with A-549 cells (2 µM), the G0/G1 was determined as 32 ± 5%, the G2/M was found to be 46 ± 4% and the S came out at 22 ± 2%. The “CrC (critical concentration)” value in the assay with purified tubulin is given as 10.2 ± 1.8 µM.

For `COc1ccc(/C=C\c2cc(OC)c(OC)c(OC)c2)cc1OCC(=O)N1CCC[C@@H]1C(=O)O` [Compound 6.4], 53000 ± 9000 nM corresponded to half-maximal inhibition in assay [1] (Table 1) (IC50). Also, the mrna remaining at 25 µM with VEGF gene (25 μM) came out at 25%. The concentration for half-maximal inhibition (IC50) in assay [2] (Table 1) turned out to be 50000 ± 11000 nM. Moreover, in the assay on A-549 cells (75 μM), the G0/G1 came to 71%, the G2/M was 15% and the S is given as 14%. Moreover, the “Effect on the cell cycle” value in the assay with A-549 cells is on record as “do not exert any significant effect on the cells”. Also, the “CrC (critical concentration)” value in the assay with purified tubulin came out at 10 ± 3 µM.

`COc1ccc(/C=C\c2cc(OC)c(OC)c(OC)c2)cc1NC(=O)[C@H](CCSC)NC(=O)OCC1c2ccccc2-c2ccccc21` [Compound 7.9]: in assay [1] (Table 2), inhibition was half-maximal at 8 ± 4 nM (IC50). Further, the mrna remaining at 0.03 µM in the assay with VEGF gene (30 nM) came out at 68%. This compound also showed an IC50 in assay [2] (Table 2) of 33 ± 20 nM. In addition, in the assay on A-549 cells (2 µM), the G0/G1 was found to be 72 ± 2%, the G2/M came to 10 ± 3% and the S came to 18 ± 1%. In addition, the “Effect on the cell cycle” value in the assay with A-549 cells is “do not accumulate a high percentage of cells in phase G2/M”. The “CrC (critical concentration)” value in the assay with purified tubulin came to 7.1 ± 0.4 µM.
